{"source": "patent US20130065897A1", "about": "“COMPOUNDS, PREPARATION AND USES THEREOF” (PETER MACCALLUM CANCER INSTITUTE, priority 2009, published 2013)", "key": {"[1]": {"biological_target": "recombinant perforin (UniProt P10820)", "sequence (P10820 whole entry)": "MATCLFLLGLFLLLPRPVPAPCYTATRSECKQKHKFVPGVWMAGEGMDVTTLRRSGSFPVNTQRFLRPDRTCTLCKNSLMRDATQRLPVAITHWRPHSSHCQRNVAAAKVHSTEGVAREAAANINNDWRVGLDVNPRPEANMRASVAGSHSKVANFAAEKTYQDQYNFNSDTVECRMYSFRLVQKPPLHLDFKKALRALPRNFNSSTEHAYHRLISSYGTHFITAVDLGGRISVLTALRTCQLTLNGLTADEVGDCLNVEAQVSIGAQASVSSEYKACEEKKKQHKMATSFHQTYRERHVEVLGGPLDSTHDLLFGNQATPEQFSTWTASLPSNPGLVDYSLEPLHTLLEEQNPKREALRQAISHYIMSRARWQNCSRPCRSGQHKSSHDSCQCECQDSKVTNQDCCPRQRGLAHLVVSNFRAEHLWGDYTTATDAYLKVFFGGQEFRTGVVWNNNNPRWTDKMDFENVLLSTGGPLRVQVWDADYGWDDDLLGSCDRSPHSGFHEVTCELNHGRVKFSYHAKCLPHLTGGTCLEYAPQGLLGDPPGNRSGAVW", "type": "cell-based", "conditions": "read-out: Jurkat IC50; recombinant perforin pre-incubated 30 min with compound; 51Cr-labelled Jurkat cells, 0.1% BSA, 37° C. 4 hours", "summary_of_the_method": "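Jurkat T lymphoma target cells labelled 1 h with 100 μCi ^51Cr, washed, resuspended at 1×10^5 cells/mL in RPMI with 0.1% BSA; lysis read as ^51Cr release into supernatant by gamma counting. Triplicate points; IC50 from the concentration range.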"}, "[2]": {"tested_on": "KHYG-1 NK cells", "test": "Toxicity to KHYG-1 NK cells (trypan blue viability)", "type": "cell-based", "conditions": "viable cells as percentage of total (% viability), 18 to 24 hours"}, "[3]": {"tested_on": "KHYG-1 NK cell-mediated lysis of K562 cells", "test": "Inhibition of KHYG-1 NK cell-mediated lysis of K562 cells (51Cr release)", "type": "cell-based", "conditions": "K562 target cells, Effector:Target 2:1, 4 hours 37° C.", "summary_of_the_method": "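KHYG-1 NK effector cells in RPMI+0.1% BSA were preincubated with compounds up to 20 μM for 20 minutes at RT. ⁵¹Cr-labelled K562 targets were then added (E:T 2:1) for 4 hours at 37 °C, and ⁵¹Cr release gamma-counted as percent specific cytotoxicity, mean of triplicates ± SEM.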"}}, "data": [{"smiles": "O=C1NC(=S)N/C1=C/c1cc2ccc(-c3ccc4c(c3)COC4=O)cc2[nH]1", "note": "[Cmpd 11, (E,Z)-5-((6-(1-Oxo-1,3-dihydroisobenzofuran-5-yl)-1H-indol-2-yl)methylene)-2-thioxoimidazolidin-4-one]", "values": [{"measurement": "IC50", "setting": "[1]", "result": 2340, "unit": "nM"}, {"measurement": "percent viable KHYG-1 cells (trypan blue) at 20 μM", "setting": "[2]", "result": 86, "unit": "%"}, {"measurement": "inhibition at 20 µM", "setting": "[3]", "result": 100, "unit": "%"}, {"measurement": "melting point", "result": "> 300", "unit": "°C"}]}, {"smiles": "O=C1NC(=S)N/C1=C\\c1ccc2ccc(-c3ccc4c(c3)COC4=O)cc2n1", "note": "[Cmpd 13]", "values": [{"measurement": "IC50", "setting": "[1]", "result": 1720, "unit": "nM"}, {"measurement": "percent viable KHYG-1 cells (trypan blue) at 20 μM", "setting": "[2]", "result": 70, "unit": "%"}, {"measurement": "inhibition at 20 µM", "setting": "[3]", "result": 52, "unit": "%"}, {"measurement": "melting point", "result": "> 310", "unit": "°C"}]}, {"smiles": "O=C1NC(=S)N/C1=C/c1cc2cc(-c3ccc4c(c3)COC4=O)ccc2o1", "note": "[Cmpd 10, (2)-5-((5-(1-Oxo-1,3-dihydroisobenzofuran-5-yl)benzofuran-2-yl)methylene)-2-thioxoimidazolidin-4-one]", "values": [{"measurement": "IC50", "setting": "[1]", "result": 620, "unit": "nM"}, {"measurement": "percent viable KHYG-1 cells (trypan blue) at 20 μM", "setting": "[2]", "result": 88, "unit": "%"}, {"measurement": "inhibition at 20 µM", "setting": "[3]", "result": 51, "unit": "%"}, {"measurement": "melting point", "result": "> 300", "unit": "°C"}]}, {"smiles": "CN(C)CCCN1Cc2cc(-c3ccc(/C=C4/NC(=S)NC4=O)s3)ccc2C1=O", "note": "[Cmpd 74, (E)-2-(3-(Dimethylamino)propyl)-5-(5-((5-oxo-2-thioxoimidazolidin-4-ylidene)methyl)thiophen-2-yl)isoindolin-1-one]", "values": [{"measurement": "IC50", "setting": "[1]", "result": "> 20000", "unit": "nM"}, {"measurement": "percent viable KHYG-1 cells (trypan blue) at 20 μM", "setting": "[2]", "result": 82, "unit": "%"}, {"measurement": "inhibition at 20 µM", "setting": "[3]", "result": 53, "unit": "%"}, {"measurement": "melting point", "result": "212 °C (dec.)"}]}, {"smiles": "O=C1NC(=S)N/C1=C\\c1cnc(-c2ccc3c(c2)COC3=O)s1", "note": "[Cmpd 55, (E,Z)-5-((2-(1-Oxo-1,3-dihydroisobenzofuran-5-yl)thiazol-5-yl)methylene)-2-thioxoimidazolidin-4-one]", "values": [{"measurement": "IC50", "setting": "[1]", "result": 1720, "unit": "nM"}, {"measurement": "percent viable KHYG-1 cells (trypan blue) at 20 μM", "setting": "[2]", "result": 95, "unit": "%"}, {"measurement": "inhibition at 20 µM", "setting": "[3]", "result": 53, "unit": "%"}, {"measurement": "melting point", "result": "> 300", "unit": "°C"}]}, {"smiles": "COc1ccc(-c2ccc(/C=C3/NC(=S)NC3=O)s2)cc1", "note": "[Cmpd 22, (E,Z)-5-((5-(4-Methoxyphenyl)thiophen-2-yl)methylene)-2-thioxoimidazolidin-4-one]", "values": [{"measurement": "IC50", "setting": "[1]", "result": 8930, "unit": "nM"}, {"measurement": "percent viable KHYG-1 cells (trypan blue) at 20 μM", "setting": "[2]", "result": 100, "unit": "%"}, {"measurement": "inhibition at 20 µM", "setting": "[3]", "result": 78, "unit": "%"}, {"measurement": "melting point", "result": "288 to 293", "unit": "°C"}]}, {"smiles": "O=C1NC(=S)N/C1=C/c1cc2cc(-c3ccc4c(c3)COC4=O)ccc2[nH]1", "note": "[Cmpd 12, (E,Z)-5-((5-(1-Oxo-1,3-dihydroisobenzofuran-5-yl)-1H-indol-2-yl)methylene)-2-thioxoimidazolidin-4-one]", "values": [{"measurement": "IC50", "setting": "[1]", "result": 720, "unit": "nM"}, {"measurement": "percent viable KHYG-1 cells (trypan blue) at 20 μM", "setting": "[2]", "result": 94, "unit": "%"}, {"measurement": "inhibition at 20 µM", "setting": "[3]", "result": 74, "unit": "%"}, {"measurement": "melting point", "result": "> 300", "unit": "°C"}]}, {"smiles": "O=C1NC(=S)N/C1=C/c1cc2ccc(-c3ccc4c(c3)COC4=O)cc2s1", "note": "[Cmpd 80, (E,Z)-5-((6-(1-Oxo-1,3-dihydroisobenzofuran-5-yl)benzo[b]thiophen-2-yl)methylene)-2-thioxoimidazolidin-4-one]", "values": [{"measurement": "IC50", "setting": "[1]", "result": 360, "unit": "nM"}, {"measurement": "percent viable KHYG-1 cells (trypan blue) at 20 μM", "setting": "[2]", "result": 75, "unit": "%"}, {"measurement": "inhibition at 20 µM", "setting": "[3]", "result": 55, "unit": "%"}, {"measurement": "melting point", "result": "> 310", "unit": "°C"}]}, {"smiles": "O=C1NC(=S)N/C1=C/c1ccc(-c2ccc(C(=O)NCCN3CCOCC3)cc2)s1", "note": "[Cmpd 45, (E,Z)-N-(2-Morpholinoethyl)-4-(5-((5-oxo-2-thioxoimidazolidin-4-ylidene)methyl)thiophen-2-yl)benzamide]", "values": [{"measurement": "IC50", "setting": "[1]", "result": "> 20000", "unit": "nM"}, {"measurement": "percent viable KHYG-1 cells (trypan blue) at 20 μM", "setting": "[2]", "result": 88, "unit": "%"}, {"measurement": "inhibition at 20 µM", "setting": "[3]", "result": 78, "unit": "%"}, {"measurement": "melting point", "result": "248 to 252", "unit": "°C"}]}, {"smiles": "O=C1C/C(=C/c2ccc(-c3ccc4c(c3)COC4=O)s2)C(=O)N1", "note": "[Cmpd 36, (E,Z)-3-((5-(1-Oxo-1,3-dihydroisobenzofuran-5-yl)thiophen-2-yl)methylene)pyrrolidine-2,5-dione]", "values": [{"measurement": "percent viable KHYG-1 cells (trypan blue) at 20 μM", "setting": "[2]", "result": 65, "unit": "%"}, {"measurement": "inhibition at 20 µM", "setting": "[3]", "result": 51, "unit": "%"}, {"measurement": "melting point", "result": "> 295", "unit": "°C"}]}, {"smiles": "O=C1NC(=S)N/C1=C/c1cnc(-c2ccc3c(c2)COC3=O)o1", "note": "[Cmpd 54, (E,Z)-5-((2-(1-Oxo-1,3-dihydroisobenzofuran-5-yl)oxazol-5-yl)methylene)-2-thioxoimidazolidin-4-one]", "values": [{"measurement": "percent viable KHYG-1 cells (trypan blue) at 20 μM", "setting": "[2]", "result": 100, "unit": "%"}, {"measurement": "inhibition at 20 µM", "setting": "[3]", "result": 55, "unit": "%"}, {"measurement": "melting point", "result": "> 295", "unit": "°C"}]}, {"smiles": "O=C1NC(=O)/C(=C\\c2ccc(-c3ccc4c(c3)COC4=O)s2)N1", "note": "[Cmpd 3, (E,Z)-5-((5-(1-Oxo-1,3-dihydroisobenzofuran-5-yl)thiophen-2-yl)methylene)imidazolidine-2,4-dione]", "values": [{"measurement": "percent viable KHYG-1 cells (trypan blue) at 20 μM", "setting": "[2]", "result": 82, "unit": "%"}, {"measurement": "inhibition at 20 µM", "setting": "[3]", "result": 70, "unit": "%"}, {"measurement": "melting point", "result": "> 300", "unit": "°C"}]}]}
